Test results reported in PMC12472947 (Pharmaceuticals, 2025).
“And” between values parts separate entries of the source, which are not always exact repeats. Identical values can stand only once. Like-named read-outs stand apart in the source and are kept apart here. Marks after values point to notes of the source that are not given here.

Key:
[1] = target: T1, equine serum BChE [EqBChE] (Equus caballus, UniProt P81908); experiment: biochemical; details: Ellman method, read-out: IC50(nM) ± SD BChE (EqBChE)
T1 construct: equine serum BChE [EqBChE]; from tissue; host or cells: equine serum
Experimental: (§1) The anticholinesterase activity was determined using Ellman’s method, adapted as follows. […] Subsequently, 60 μL of 5,5′-dithiobis(2-nitrobenzoic acid) (DTNB, 1.1 mM) and 30 μL of enzyme solution (electric eel AChE [EeAChE], human AChE [hAChE], or equine serum BChE [EqBChE], 0.20 U/mL) containing 1 mg/mL bovine serum albumin (BSA) were added. […] Enzyme activity was calculated as the percentage relative to untreated controls, subtracting the blank reference. IC50 values were derived via non-linear regression analysis of dose–response curves (Figure S4) using GraphPad Prism v7.0.

human AChE [hAChE] = human AChE [hAChE] (Homo sapiens, UniProt P22303); experiment: biochemical; details: for IC50: Human AChE, Ellman method, read-out: IC50(nM) ± SD AChE (hAChE) (converted); for SI: SI = EqBChE IC50/hAChE
Experimental: as §1

[2] = target: electric eel acetylcholinesterase (EeAChE) (Electrophorus electricus, UniProt O42275); experiment: Enzymatic kinetic study, EeAChE; format: biochemical; details: AChE
Experimental: (§2) The enzymatic kinetics of cholinesterase inhibition were determined according to an adapted Ellman’s method. All of the solutions were prepared at 20 °C in 0.02 M Tris-HCl buffer (pH 7.5; ionic strength ~0.02 M), stock solutions of test compounds were prepared in DMSO:EtOH (7:3) mixture (20 mM), and the experiment was conducted in triplicate. To a flat-bottom 96-well transparent plate (path length of 0.6 cm) were added 150 μL of treatment solutions with inhibitors 1a, 1h, and 1j at two different concentrations (Table S1) distributed in eight sets of triplicate each. Eight sets of untreated triplicates were used as a negative control. Following, there were added 60 μL of 5,5′-Dithiobis(2-nitrobenzoic acid) (DTNB, Ellman’s reagent) at 1.1 mM and 30 μL of electric eel acetylcholinesterase (EeAChE) or equine serum butyrylcholinesterase (EqBuChE) at 0.20 U/mL in the presence of 1 mg/mL bovine serum albumin (BSA). […] Ki, Ki’ (competitive and noncompetitive inhibition constants, respectively), Km (Michaelis-Menten constant), and Vmax values were calculated with Graphpad Prism v7.0 using the non-linear regression models for enzyme kinetics inhibition and enzyme kinetics–substrate vs. velocity.

[3] = target: T2, equine serum butyrylcholinesterase (EqBuChE) (Equus caballus, UniProt P81908); experiment: Enzymatic kinetic study, EqBChE; format: biochemical; details: BChE
T2 construct: equine serum BChE [EqBChE]; from tissue; host or cells: equine serum
Experimental: as §2

[4] = test system: H2O2-damaged SH-SY5Y cells; experiment: In vitro neuroprotection against H2O2 in SH-SY5Y (MTT); details: for viability at 12.5 µM: Homo sapiens, SH-SY5Y, read-out: Cell viability (% of control)
Experimental: For the neuroprotection assay, the cells previously cultured (Section 3.4.1) were seeded in 96-well plates at a density of 5 × 10^4 cells/well in a volume of 200 µL. The plates were incubated at 37 °C containing 5% CO2 for 24 h. After 24 h, the medium was replaced with the test solutions. […] Finally, the test solutions were removed, the cells were washed with PBS pH 7.4, and the H2O2 solution was added and maintained in contact with the cells for 24 h. After 24 h exposure, the neuroprotective capacity was assessed through cell viability using the MTT assay protocol previously described in Section 3.4.3 [52, 53].

hMAO-A = target: T3, hMAO-A (Homo sapiens, UniProt P21397); experiment: MAO-A inhibition, fluorometric Amplex Red assay; format: biochemical
T3 construct: purchased Sigma-Aldrich, Gillingham, UK
T3 sequence (P21397 1-527): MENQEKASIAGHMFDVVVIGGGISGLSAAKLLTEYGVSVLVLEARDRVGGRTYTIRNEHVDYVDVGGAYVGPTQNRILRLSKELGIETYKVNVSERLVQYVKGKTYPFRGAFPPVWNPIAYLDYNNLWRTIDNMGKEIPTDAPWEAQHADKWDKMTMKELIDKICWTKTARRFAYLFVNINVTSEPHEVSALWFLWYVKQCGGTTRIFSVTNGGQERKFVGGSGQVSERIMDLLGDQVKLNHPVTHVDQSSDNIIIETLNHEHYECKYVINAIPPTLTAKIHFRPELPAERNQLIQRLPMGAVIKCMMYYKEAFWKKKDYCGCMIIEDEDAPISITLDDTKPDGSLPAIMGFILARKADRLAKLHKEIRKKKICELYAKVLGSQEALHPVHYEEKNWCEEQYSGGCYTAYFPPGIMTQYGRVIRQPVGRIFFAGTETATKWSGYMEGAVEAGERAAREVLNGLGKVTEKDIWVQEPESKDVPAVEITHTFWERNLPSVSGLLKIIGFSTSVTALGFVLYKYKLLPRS
Experimental: The activity of human recombinant membrane-bound monoamine oxidase isoforms A and B (MAO-A/B) (Sigma-Aldrich, Gillingham, UK) in 50 mM potassium phosphate buffer (pH 7.5) was determined by measuring hydrogen peroxide production coupled to the fluorescent dye Amplex Red (Sigma-Aldrich, UK) at a final concentration of 50 μM, in the presence of horseradish peroxidase (HRP, 2.5 U/mL). This coupling reaction generates the fluorescent product resorufin, which was quantified at 30 °C using a fluorescence plate reader. […].
Reactions were initiated by adding the substrate and dye after a 30 min preincubation of the inhibitor with the enzyme. Data were analyzed using a three-parameter equation in GraphPad Prism 7.0 (San Diego, USA). Each reported value represents the mean of at least two independent determinations.

[5] = enzyme-substrate complex, global non-linear regression (Table 2)
[6] = free enzyme (Table S3), read-out: Ki ± SE (95% CI)
[7] = global non-linear regression, mixed inhibition (Table S3)

Sequence of human AChE [hAChE] (P22303 32-614): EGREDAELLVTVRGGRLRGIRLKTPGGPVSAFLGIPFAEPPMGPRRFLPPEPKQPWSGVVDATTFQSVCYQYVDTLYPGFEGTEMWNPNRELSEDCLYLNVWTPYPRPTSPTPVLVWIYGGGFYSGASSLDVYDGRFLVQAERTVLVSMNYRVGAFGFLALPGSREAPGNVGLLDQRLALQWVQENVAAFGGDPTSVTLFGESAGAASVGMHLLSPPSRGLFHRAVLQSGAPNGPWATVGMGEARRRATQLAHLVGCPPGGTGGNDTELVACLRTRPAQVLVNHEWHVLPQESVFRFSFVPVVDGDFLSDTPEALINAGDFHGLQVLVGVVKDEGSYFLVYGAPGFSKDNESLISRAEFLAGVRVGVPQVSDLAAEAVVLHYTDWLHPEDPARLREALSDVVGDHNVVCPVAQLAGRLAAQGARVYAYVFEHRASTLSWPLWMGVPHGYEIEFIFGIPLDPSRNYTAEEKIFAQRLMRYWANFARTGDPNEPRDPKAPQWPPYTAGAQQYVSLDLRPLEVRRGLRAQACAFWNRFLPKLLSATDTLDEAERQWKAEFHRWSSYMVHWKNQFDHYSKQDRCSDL
Sequence of electric eel acetylcholinesterase (EeAChE) (O42275 24-633): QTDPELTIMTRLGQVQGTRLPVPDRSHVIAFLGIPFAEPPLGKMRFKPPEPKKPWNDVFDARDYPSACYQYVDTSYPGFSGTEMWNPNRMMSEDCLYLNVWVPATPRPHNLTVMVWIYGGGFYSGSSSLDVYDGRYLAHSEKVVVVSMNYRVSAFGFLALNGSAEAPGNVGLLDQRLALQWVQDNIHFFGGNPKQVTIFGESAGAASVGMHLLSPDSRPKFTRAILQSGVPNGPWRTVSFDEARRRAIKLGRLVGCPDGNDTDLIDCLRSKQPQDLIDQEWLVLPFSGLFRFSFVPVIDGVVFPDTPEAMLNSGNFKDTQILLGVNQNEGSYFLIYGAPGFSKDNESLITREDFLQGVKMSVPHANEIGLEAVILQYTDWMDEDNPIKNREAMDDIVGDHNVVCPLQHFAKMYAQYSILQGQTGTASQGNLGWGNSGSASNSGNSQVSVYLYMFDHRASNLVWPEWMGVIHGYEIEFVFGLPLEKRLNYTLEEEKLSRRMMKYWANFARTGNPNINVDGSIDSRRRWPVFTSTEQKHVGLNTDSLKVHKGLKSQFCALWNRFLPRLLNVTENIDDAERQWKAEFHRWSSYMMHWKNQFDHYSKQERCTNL
T2 sequence (P81908 whole entry): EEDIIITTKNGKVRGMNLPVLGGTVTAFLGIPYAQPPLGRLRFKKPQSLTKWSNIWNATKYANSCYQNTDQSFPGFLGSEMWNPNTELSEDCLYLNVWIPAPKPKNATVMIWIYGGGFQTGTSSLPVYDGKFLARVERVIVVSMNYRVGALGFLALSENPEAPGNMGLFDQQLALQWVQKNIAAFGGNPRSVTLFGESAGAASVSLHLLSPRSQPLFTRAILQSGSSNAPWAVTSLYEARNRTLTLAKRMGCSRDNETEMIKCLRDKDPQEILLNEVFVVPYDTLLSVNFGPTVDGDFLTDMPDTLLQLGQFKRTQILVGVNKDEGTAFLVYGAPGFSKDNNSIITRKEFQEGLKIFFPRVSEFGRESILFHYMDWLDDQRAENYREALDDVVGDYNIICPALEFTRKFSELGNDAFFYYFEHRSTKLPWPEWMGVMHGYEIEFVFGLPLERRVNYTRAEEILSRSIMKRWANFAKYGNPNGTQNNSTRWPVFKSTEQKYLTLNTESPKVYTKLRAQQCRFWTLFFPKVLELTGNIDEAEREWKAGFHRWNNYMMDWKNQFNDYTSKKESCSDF
T1 sequence (P81908 whole entry): as above

O=c1oc2cc(OCCN3CCCCC3)ccc2cc1-c1cn(Cc2ccccc2)nn1 [Compound 1h, 3-(1-Benzyl-1H-1,2,3-triazol-4-yl)-7-(2-(piperidin-1-yl)ethoxy)-2H-chromen-2-one]
IC50 [1]: 3790 ± 400 nM
IC50 (human AChE [hAChE]): 115 nM
SI (human AChE [hAChE]): 33
inhibition mechanism ([2]; Lineweaver-Burk plots): mixed-type inhibition
Ki’ (nM) ± SE [2, 5]: 7.17 ± 1.48 nM
Ki [2, 6]: 4.73 ± 0.878 nM
Ki ([2]; free enzyme, global non-linear regression to mixed-inhibition equation (Table 2), read-out: Ki (nM) ± SE): 4.73 ± 0.88 nM
α ± SE (95% CI) [2, 7]: 1.516 ± 0.3136
Vmax ± SD ([2]; inhibitor 0.005 μM): 4.45 ± 0.02231 1 × 10^3 nM/min and 4.45 ± 0.02 1 × 10^3 nM/min
Vmax ± SD ([2]; inhibitor 0.007 μM): 3.19 ± 0.0981 1 × 10^3 nM/min and 3.19 ± 0.010 1 × 10^3 nM/min
inhibition mechanism ([3]; Lineweaver-Burk plots): mixed-type inhibition
Ki ([3]; competitive inhibition constant (Table S2), read-out: Ki (nM) ± SD): 980 ± 24 nM
Ki’ (nM) ± SE [3, 5]: 4830 ± 620 nM
Ki [3, 6]: 1250 ± 151 nM
Ki ([3]; free enzyme, global non-linear regression (Table 2), read-out: Ki (nM) ± SE): 1250 ± 150 nM
α ± SE (95% CI) [3, 7]: 3.852 ± 0.4265
Vmax ± SD ([3]; inhibitor 2.8 μM): 3.62 ± 0.1358 1 × 10^3 nM/min and 3.62 ± 0.14 1 × 10^3 nM/min
Vmax ± SD ([3]; inhibitor 4.8 μM): 3.40 ± 0.0349 1 × 10^3 nM/min and 3.40 ± 0.03 1 × 10^3 nM/min
neuroprotection against H2O2-induced oxidative stress ([4]; 12.5 µM): neuroprotective effects
viability at 12.5 µM [4]: 88%
inhibition at 1 µM (hMAO-A; test concentration of 1 µM, read-out: Percentage of MAO-A inhibition ± SEM): 5.2 ± 1.9%

O=c1oc2cc(OCCCN3CCCCC3)ccc2cc1-c1cn(Cc2ccccc2)nn1 [Compound 1q, 3-(1-Benzyl-1H-1,2,3-triazol-4-yl)-7-(3-(piperidin-1-yl)propoxy)-2H-chromen-2-one]
IC50 [1]: 3560 ± 190 nM
IC50 (human AChE [hAChE]): 1410 nM
SI (human AChE [hAChE]): ~2 ^e,f
viability at 12.5 µM [4]: 68%
IC50 (hMAO-A; 95% confidence interval in brackets): 31.1 µM
